Assay results: patent US11987586B1 (TAKEDA PHARMACEUTICAL COMPANY LIMITED, priority 2022, dated 2024)

Molecular target: T1, human OX2 receptor (Homo sapiens, UniProt O43614)
T1 construct: expressed in transfected cells
T1 sequence (O43614 1-444): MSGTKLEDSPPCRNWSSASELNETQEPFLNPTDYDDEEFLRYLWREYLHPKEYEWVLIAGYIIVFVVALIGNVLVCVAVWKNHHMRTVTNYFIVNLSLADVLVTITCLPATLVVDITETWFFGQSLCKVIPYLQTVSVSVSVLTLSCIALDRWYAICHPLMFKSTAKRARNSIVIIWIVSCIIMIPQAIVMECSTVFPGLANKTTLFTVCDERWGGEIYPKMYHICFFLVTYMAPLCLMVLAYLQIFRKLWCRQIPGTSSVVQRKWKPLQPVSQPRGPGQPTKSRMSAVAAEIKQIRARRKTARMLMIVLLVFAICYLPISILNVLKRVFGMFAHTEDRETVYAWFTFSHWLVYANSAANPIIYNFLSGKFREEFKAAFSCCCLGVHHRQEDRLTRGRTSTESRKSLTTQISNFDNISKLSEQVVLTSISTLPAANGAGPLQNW
Assay: Measurement of orexin type 2 receptor agonist activity (calcium fluorescence, Fluo-4, FDSS)
Assay type: cell-based
Conditions: 3 uM test compound; CHO cells expressing human OX2 receptor; DMSO = 0%, 10 nM orexin A (human) = 100%
How it was run: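 CHO-K1 cells stably expressing human OX2 receptor (residues 1-444) were loaded with Fluo-4 AM plus probenecid. Calcium fluorescence after compound addition was recorded for 1 min 40 s. Activity (%) was scaled between DMSO (0%) and 10 nM orexin A final (100%).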

SMILES | OX2R agonist activity (3 uM, %) [%]
CS(=O)(=O)N[C@@H]1Cn2c(cn(-c3noc4cc(F)cc(-c5c(F)cc(F)cc5F)c34)c2=O)C1(F)F [Example 108, N-{(6R)-7,7-difluoro-2-[6-fluoro-4-(2,4,6-trifluorophenyl)-1,2-benzoxazol-3-yl]-3-oxo-2,5,6,7-tetrahydro-3H-pyrrolo[1,2-c]imidazol-6-yl}methanesulfonamide] | 109
COCc1cc(-c2c(F)cc(F)cc2F)c2c(-n3cc4n(c3=O)C[C@@H](NS(C)(=O)=O)C4(F)F)noc2c1 [Example 111, N-{(6R)-7,7-difluoro-2-[6-(methoxymethyl)-4-(2,4,6-trifluorophenyl)-1,2-benzoxazol-3-yl]-3-oxo-2,5,6,7-tetrahydro-3H-pyrrolo[1,2-c]imidazol-6-yl}methanesulfonamide] | 90
CS(=O)(=O)N[C@@H]1Cn2c(cn(-c3noc4cc(C(F)(F)F)cc(-c5c(F)cc(F)cc5F)c34)c2=O)C1(F)F [Example 130, N-{(6R)-7,7-difluoro-3-oxo-2-[6-(trifluoromethyl)-4-(2,4,6-trifluorophenyl)-1,2-benzoxazol-3-yl]-2,5,6,7-tetrahydro-3H-pyrrolo[1,2-c]imidazol-6-yl}methanesulfonamide] | 99
O=c1n(-c2noc3ccc(F)c(-c4c(F)cc(F)cc4F)c23)cc2n1C[C@@H](NS(=O)(=O)C1CC1)C2(F)F [Example 272, N-{(6R)-7,7-difluoro-2-[5-fluoro-4-(2,4,6-trifluorophenyl)-1,2-benzoxazol-3-yl]-3-oxo-2,5,6,7-tetrahydro-3H-pyrrolo[1,2-c]imidazol-6-yl}cyclopropanesulfonamide] | 109
Cc1cc2onc(-n3cc4n(c3=O)C[C@@H](NS(=O)(=O)N(C)C)C4(F)F)c2c(-c2c(F)cccc2F)n1 [Example 286, N′-{(6R)-2-[4-(2,6-difluorophenyl)-6-methyl[1,2]oxazolo[4,5-c]pyridin-3-yl]-7,7-difluoro-3-oxo-2,5,6,7-tetrahydro-3H-pyrrolo[1,2-c]imidazol-6-yl}-N,N-dimethylsulfuric diamide] | 105
CCS(=O)(=O)N[C@@H]1Cn2c(cn(-c3noc4cc(F)c(F)c(-c5c(F)cccc5F)c34)c2=O)C1(F)F [Example 170, N-{(6R)-2-[4-(2,6-difluorophenyl)-5,6-difluoro-1,2-benzoxazol-3-yl]-7,7-difluoro-3-oxo-2,5,6,7-tetrahydro-3H-pyrrolo[1,2-c]imidazol-6-yl}ethanesulfonamide] | 94
CCS(=O)(=O)N[C@H]1C[C@H]2CN(c3noc4cc(C5CC5)cc(-c5c(F)cccc5F)c34)C(=O)N2C1 [Example 56, N-{(6S,7aS)-2-[6-cyclopropyl-4-(2,6-difluorophenyl)-1,2-benzoxazol-3-yl]-3-oxohexahydro-1H-pyrrolo[1,2-c]imidazol-6-yl}ethanesulfonamide] | 99
CNS(=O)(=O)N[C@@H]1CN2C(=O)N(c3noc4cc(F)cc(-c5c(F)cc(F)cc5F)c34)C[C@@H]2C1(F)F [Example 144, N-{(6R,7aR)-7,7-Difluoro-2-[6-fluoro-4-(2,4,6-trifluorophenyl)-1,2-benzoxazol-3-yl]-3-oxohexahydro-1H-pyrrolo[1,2-c]imidazol-6-yl}-N′-methylsulfuric diamide] | 102
COc1cc(-c2c(F)cc(F)cc2F)c2c(-n3cc4n(c3=O)C[C@@H](NS(C)(=O)=O)C4(F)F)noc2n1 [Example 250, N-{(6R)-7,7-difluoro-2-[6-methoxy-4-(2,4,6-trifluorophenyl)[1,2]oxazolo[5,4-b]pyridin-3-yl]-3-oxo-2,5,6,7-tetrahydro-3H-pyrrolo[1,2-c]imidazol-6-yl}methanesulfonamide] | 99
CS(=O)(=O)N[C@@H]1Cn2c(cn(-c3noc4cc(F)cc(-c5c(F)cccc5F)c34)c2=O)C1(F)F [Example 46, N-{(6R)-2-[4-(2,6-difluorophenyl)-6-fluoro-1,2-benzoxazol-3-yl]-7,7-difluoro-3-oxo-2,5,6,7-tetrahydro-3H-pyrrolo[1,2-c]imidazol-6-yl}methanesulfonamide] | 102
CCS(=O)(=O)N[C@H]1Cc2cn(-c3cnc4cccc(-c5c(F)cccc5F)n34)c(=O)n2C1 [Example 37, N-{(6S)-2-[5-(2,6-difluorophenyl)imidazo[1,2-a]pyridin-3-yl]-3-oxo-2,5,6,7-tetrahydro-3H-pyrrolo[1,2-c]imidazol-6-yl}ethanesulfonamide] | 101
Cc1cc(-c2c(F)cc(F)cc2F)c2c(-n3cc4n(c3=O)CC(NS(C)(=O)=O)C(F)(F)C4)noc2n1 (single isomer, unassigned) [Example 245, N-{(6R*)-7,7-difluoro-2-[6-methyl-4-(2,4,6-trifluorophenyl)[1,2]oxazolo[5,4-b]pyridin-3-yl]-3-oxo-2,3,5,6,7,8-hexahydroimidazo[1,5-a]pyridin-6-yl}methanesulfonamide] | 108

Other lines, results leading:

OX2R agonist activity (3 uM, %) [%] | SMILES
106 | CS(=O)(=O)N[C@@H]1CN2C(=O)N(c3noc4cc(C(F)(F)F)cc(-c5c(F)cc(F)cc5F)c34)CC[C@@H]2C1(F)F [Example 225, N-{(4aR,6R)-5,5-difluoro-1-oxo-2-[6-(trifluoromethyl)-4-(2,4,6-trifluorophenyl)-1,2-benzoxazol-3-yl]octahydropyrrolo[1,2-c]pyrimidin-6-yl}methanesulfonamide]
98 | CCS(=O)(=O)N[C@@H]1CN2C(=O)N(c3noc4cc(C)cc(-c5c(F)cccc5F)c34)C[C@@H]2C1(F)F [Example 154, N-{(6R,7aR)-2-[4-(2,6-difluorophenyl)-6-methyl-1,2-benzoxazol-3-yl]-7,7-difluoro-3-oxohexahydro-1H-pyrrolo[1,2-c]imidazol-6-yl}ethanesulfonamide]
108 | Cc1cc(-c2c(F)cccc2F)c2c(N3C[C@H]4N(C[C@@H](NS(C)(=O)=O)C4(F)F)C3=O)noc2n1 [Example 164, N-{(6R,7aR)-2-[4-(2,6-difluorophenyl)-6-methyl[1,2]oxazolo[5,4-b]pyridin-3-yl]-7,7-difluoro-3-oxohexahydro-1H-pyrrolo[1,2-c]imidazol-6-yl}methanesulfonamide]
101 | CCS(=O)(=O)N[C@@H]1CN2C(=O)N(c3noc4cccc(-c5ncc(F)cc5C)c34)CC[C@@H]2C1(F)F [Example 335, N-{(4aR,6R)-5,5-difluoro-2-[4-(5-fluoro-3-methylpyridin-2-yl)-1,2-benzoxazol-3-yl]-1-oxooctahydropyrrolo[1,2-c]pyrimidin-6-yl}ethanesulfonamide]
109 | CCS(=O)(=O)N[C@@H]1CN2C(=O)N(c3noc4cccc(-c5nccs5)c34)CC[C@@H]2C1(F)F [Example 330, N-{(4aR,6R)-5,5-difluoro-1-oxo-2-[4-(1,3-thiazol-2-yl)-1,2-benzoxazol-3-yl]octahydropyrrolo[1,2-c]pyrimidin-6-yl}ethanesulfonamide]
94 | CCS(=O)(=O)N[C@H]1C[C@@H]2CN(c3noc4cccc(-c5c(F)cccc5F)c34)C(=O)N2C1 [Example 49, N-{(6S, 7aR)-2-[4-(2,6-difluorophenyl)-1,2-benzoxazol-3-yl]-3-oxohexahydro-1H-pyrrolo[1,2-c]imidazol-6-yl}ethanesulfonamide]
114 | CCS(=O)(=O)N[C@@H]1CN2C(=O)N(c3noc4cccc(-c5c(F)cccc5F)c34)CC[C@@H]2C1(F)F [Example 262]
106 | CS(=O)(=O)N[C@H]1C[C@H]2CCN(c3noc4cccc(-c5c(F)cc(F)cc5F)c34)C(=O)N2C1 [Example 195]
105 | CCS(=O)(=O)N[C@@H]1CN2C(=O)N(c3noc4ccc(F)c(-c5c(F)cccc5F)c34)C[C@@H]2C1(F)F [Example 7, N-{(6R,7aR)-2-[4-(2,6-difluorophenyl)-5-fluoro-1,2-benzoxazol-3-yl]-7,7-difluoro-3-oxohexahydro-1H-pyrrolo[1,2-c]imidazol-6-yl}ethanesulfonamide]
109 | CS(=O)(=O)N[C@@H]1CN2C(=O)N(c3noc4cccc(-c5cccs5)c34)CC[C@@H]2C1(F)F [Example 278, N-{(4aR,6R)-5,5-difluoro-1-oxo-2-[4-(thiophen-2-yl)-1,2-benzoxazol-3-yl]octahydropyrrolo[1,2-c]pyrimidin-6-yl}methanesulfonamide]
100 | CS(=O)(=O)N[C@@H]1CN2C(=O)N(c3noc4ccc(F)c(-c5c(F)cc(F)cc5F)c34)CC[C@@H]2C1(F)F [Example 241, N-{(4aR,6R)-5,5-difluoro-2-[5-fluoro-4-(2,4,6-trifluorophenyl)-1,2-benzoxazol-3-yl]-1-oxooctahydropyrrolo[1,2-c]pyrimidin-6-yl}methanesulfonamide]
103 | CCS(=O)(=O)N[C@@H]1CN2C(=O)N(c3noc4cccc(-c5cccs5)c34)CC[C@@H]2C1(F)F [Example 328, N-{(4aR,6R)-5,5-difluoro-1-oxo-2-[4-(thiophen-2-yl)-1,2-benzoxazol-3-yl]octahydropyrrolo[1,2-c]pyrimidin-6-yl}ethanesulfonamide]
